{"source": "paper PMC5474694", "about": "“Fragment-Sized EthR Inhibitors Exhibit Exceptionally Strong Ethionamide Boosting Effect in Whole-Cell Mycobacterium tuberculosis Assays” (ACS Chemical Biology, 2017)", "key": {"M. tuberculosis [1]": {"system": "M. tuberculosis", "format": "cell-based, Mycobacterium tuberculosis (ATCC 27294)", "conditions": "for MEC (minimum effective concentration) / ethionamide boosting ability in M. tuberculosis culture / MEC for the 10-fold boosting of ethionamide: in the presence of 1/10 of the MIC of ethionamide; for MEC (minimum effective concentration): mean ± standard deviation of two independent replicates; for fold improvement in MEC on the starting fragment 1: relative to fragment 1; for fold drop in potency (MEC) on addition of an extra methylene unit to the linker: 15 relative to 14, 29 relative to 28"}, "M. tuberculosis [2]": {"system": "M. tuberculosis", "set-up": "method as in PMID 24313835", "conditions": "cited from earlier work"}, "EthR": {"target": "EthR (Mycobacterium tuberculosis, UniProt P9WMC1)", "sequence (P9WMC1 whole entry, looked up, the tested form may be a part)": "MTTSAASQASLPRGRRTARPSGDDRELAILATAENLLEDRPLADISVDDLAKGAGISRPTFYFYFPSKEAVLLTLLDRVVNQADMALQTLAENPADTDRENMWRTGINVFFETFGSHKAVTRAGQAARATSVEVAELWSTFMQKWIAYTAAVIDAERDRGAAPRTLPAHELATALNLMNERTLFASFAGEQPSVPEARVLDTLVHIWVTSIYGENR", "test": "Isothermal titration calorimetry (ITC) binding to EthR", "conditions": "n = 1, one site binding model", "protocol": "Isothermal titration calorimetry (ITC)\nAn aqueous solution of the fragment to be tested (1 mM) was prepared containing NaCl (300 mM), Tris.HCl (20 mM, pH = 8.0), d6-DMSO (10% v/v) and glycerol (to match the 10% v/v glycerol content in the EthR stock solution). A separate aqueous solution of EthR (50 μM) containing NaCl (300 mM), Tris.HCl (20 mM, pH = 8.0) and DMSO-d6 (10% v/v) was prepared and placed in the sample cell of a MicroCal iTC200 microcalorimeter (GE Healthcare). The fragment solution was then titrated to the EthR solution over 19 or 39 injections (first injection of 0.4 μl and subsequent injections of 2.0 μL or 1.0 μL). Data was fitted to a one site binding model using Origin software.\nFigure S10 ITC trace for cyclopentylmethyl pyrrolidine-1-carboxylate 2 binding to EthR.\n(1 picture or pasted object on this page, not shown here)"}, "[3]": {"system": "M. tuberculosis infected murine macrophages", "test": "Macrophage (intracellular) assay", "format": "cell-based, M. tuberculosis H37Rv-GFP in Raw264.7 macrophages", "conditions": "for concentrations at which intrinsic bactericidal activity against M. tuberculosis is seen: compound alone, without ethionamide; for IC50 / EC50: Mycobacterium tuberculosis, Macrophage; for IC50: in the absence of ethionamide, read-out: IC50, intrinsic bactericidal effect; for EC50: in the presence of 1/10 of the MIC of ethionamide"}}}
{"smiles": "O=C(N1CCCC1)C12CC3CC(CC(C3)C1)C2", "note": "[Compound 16]", "values": [{"measurement": "MEC (minimum effective concentration)", "setting": "M. tuberculosis [1]", "value": "> 50", "unit": "µM"}]}
{"smiles": "CCc1cc(C(N)=S)ccn1", "note": "[ethionamide]", "values": [{"measurement": "MIC of ethionamide", "setting": "M. tuberculosis [2]; ethionamide alone", "value": 15, "unit": "µM"}]}
{"smiles": "CCCC(=O)N1CCCC1", "note": "[Compound 19]", "values": [{"measurement": "MEC (minimum effective concentration)", "setting": "M. tuberculosis [1]", "value": "> 50", "unit": "µM"}]}
{"smiles": "O=S(=O)(NCC1CCCC1)N1CCCC1", "note": "[Compound 6]", "values": [{"measurement": "Kd", "setting": "EthR", "value": 20, "unit": "µM"}, {"measurement": "MEC (minimum effective concentration)", "setting": "M. tuberculosis [1]", "value": ">50", "unit": "µM"}]}
{"smiles": "O=C(/C=C/c1ccoc1)N1CCCC1", "note": "[Compound 7]", "values": [{"measurement": "Kd", "setting": "EthR", "value": 20, "unit": "µM"}, {"measurement": "MEC (minimum effective concentration)", "setting": "M. tuberculosis [1]", "value": ">50", "unit": "µM"}]}
{"smiles": "O=C(OCCC1CCCC1)N1CCCC1", "note": "[Compound 22]", "values": [{"measurement": "MEC (minimum effective concentration)", "setting": "M. tuberculosis [1]", "value": "1.6 ± 0.9", "unit": "µM"}, {"measurement": "ethionamide boosting in the macrophage assay", "setting": "[3]", "value": "significant boosting of ethionamide"}, {"measurement": "concentrations at which intrinsic bactericidal activity against M. tuberculosis is seen", "setting": "[3]", "value": "higher than 1 μM"}]}
{"smiles": "CC(C)(C)OC(=O)N1CCCC1", "note": "[Compound 30, Boc-pyrrolidine]", "values": [{"measurement": "MEC (minimum effective concentration)", "setting": "M. tuberculosis [1]", "value": "> 50", "unit": "µM"}]}
{"smiles": "O=C(CCC1CCCC1)N1CCCC1", "note": "[Compound 1]", "values": [{"measurement": "ethionamide boosting in the macrophage assay", "setting": "[3]", "value": "significant boosting of ethionamide"}, {"measurement": "concentrations at which intrinsic bactericidal activity against M. tuberculosis is seen", "setting": "[3]", "value": "higher than 1 μM"}, {"measurement": "MIC of ethionamide in the presence of fragment 1", "setting": "M. tuberculosis [2]; fragment 1 at a concentration of 1 μM", "value": "approximately 2 μM"}]}
{"smiles": "O=C(OCC1CC1)N1CCCC1", "note": "[Compound 23]", "values": [{"measurement": "MEC (minimum effective concentration)", "setting": "M. tuberculosis [1]", "value": "3.1 ± 1.8", "unit": "µM"}, {"measurement": "ethionamide boosting in the macrophage assay", "setting": "[3]", "value": "significant boosting of ethionamide"}]}
{"smiles": "O=C(OCC1CCCC1)N1CCCC1", "note": "[Compound 2, cyclopentylmethyl pyrrolidine-1-carboxylate]", "values": [{"measurement": "Kd", "setting": "EthR", "value": 15, "unit": "µM"}, {"measurement": "MEC (minimum effective concentration)", "setting": "M. tuberculosis [1]", "value": "19 ± 7.5", "unit": "µM"}]}
{"smiles": "O=S(=O)(CCC1CCCC1)N1CCCC1", "note": "[Compound 5]", "values": [{"measurement": "Kd", "setting": "EthR", "value": 16, "unit": "µM"}, {"measurement": "MEC (minimum effective concentration)", "setting": "M. tuberculosis [1]", "value": ">50", "unit": "µM"}]}
{"smiles": "O=C(CCC1CCCCC1)N1CCCC1", "note": "[Compound 13]", "values": [{"measurement": "MEC (minimum effective concentration)", "setting": "M. tuberculosis [1]", "value": "0.8 ± 0.5", "unit": "µM"}, {"measurement": "fold improvement in MEC on the starting fragment 1", "setting": "M. tuberculosis [1]", "value": "approximately 4 fold"}]}
{"smiles": "O=C(NCc1ccoc1)N1CCCC1", "note": "[Compound 9]", "values": [{"measurement": "MEC (minimum effective concentration)", "setting": "M. tuberculosis [1]", "value": ">50", "unit": "µM"}]}
{"smiles": "O=C(OCC1CCCC1)N1CCCCC1", "note": "[Compound 20]", "values": [{"measurement": "ethionamide boosting ability in M. tuberculosis culture", "setting": "M. tuberculosis [1]", "value": "loss of ethionamide boosting ability"}, {"measurement": "MEC (minimum effective concentration)", "setting": "M. tuberculosis [1]", "value": "> 50", "unit": "µM"}]}
{"smiles": "O=C(OCC1CCCC1)N1CCC1", "note": "[Compound 27]", "values": [{"measurement": "MEC (minimum effective concentration)", "setting": "M. tuberculosis [1]", "value": "13 ± 7.2", "unit": "µM"}]}
{"smiles": "O=C(NCC1CCCC1)C1CCCC1", "note": "[Compound 4]", "values": [{"measurement": "Kd", "setting": "EthR", "value": 11, "unit": "µM"}, {"measurement": "MEC (minimum effective concentration)", "setting": "M. tuberculosis [1]", "value": ">50", "unit": "µM"}]}
{"smiles": "CN(C)C(=O)OCC1CCCC1", "note": "[Compound 26]", "values": [{"measurement": "MEC (minimum effective concentration)", "setting": "M. tuberculosis [1]", "value": "6.3 ± 3.6", "unit": "µM"}]}
{"smiles": "O=C(OCC1CCCCC1)N1CCCC1", "note": "[Compound 25]", "values": [{"measurement": "MEC (minimum effective concentration)", "setting": "M. tuberculosis [1]", "value": "1.6 ± 0.9", "unit": "µM"}, {"measurement": "ethionamide boosting in the macrophage assay", "setting": "[3]", "value": "significant boosting of ethionamide"}, {"measurement": "concentrations at which intrinsic bactericidal activity against M. tuberculosis is seen", "setting": "[3]", "value": "higher than 1 μM"}]}
{"smiles": "O=C(NCC1CCOC1)N1CCCC1", "note": "(centres unmarked) [Compound 10]", "values": [{"measurement": "MEC (minimum effective concentration)", "setting": "M. tuberculosis [1]", "value": ">50", "unit": "µM"}]}
{"smiles": "O=C(NCC1CCCC1)N1CCCC1", "note": "[Compound 3]", "values": [{"measurement": "Kd", "setting": "EthR", "value": 6, "unit": "µM"}, {"measurement": "MEC (minimum effective concentration)", "setting": "M. tuberculosis [1]", "value": ">50", "unit": "µM"}]}
{"smiles": "O=C(CCc1ccoc1)N1CCCC1", "note": "[Compound 8]", "values": [{"measurement": "Kd", "setting": "EthR", "value": 22, "unit": "µM"}, {"measurement": "MEC (minimum effective concentration)", "setting": "M. tuberculosis [1]", "value": ">50", "unit": "µM"}]}
{"smiles": "O=C(CCCC1CCCCC1)N1CCCC1", "note": "[Compound 14]", "values": [{"measurement": "MEC for the 10-fold boosting of ethionamide", "setting": "M. tuberculosis [1]", "value": 400, "unit": "nM"}, {"measurement": "MEC (minimum effective concentration)", "setting": "M. tuberculosis [1]", "value": "0.4 ± 0.2", "unit": "µM"}, {"measurement": "fold improvement in MEC on the starting fragment 1", "setting": "M. tuberculosis [1]", "value": "approximately 7 fold"}, {"measurement": "IC50", "setting": "[3]", "value": "~1", "unit": "µM"}, {"measurement": "EC50", "setting": "[3]", "value": 0.04, "unit": "µM"}]}
{"smiles": "O=C(CCCCC1CCCCC1)N1CCCC1", "note": "[Compound 15]", "values": [{"measurement": "fold drop in potency (MEC) on addition of an extra methylene unit to the linker", "setting": "M. tuberculosis [1]", "value": 4, "unit": "fold"}, {"measurement": "MEC (minimum effective concentration)", "setting": "M. tuberculosis [1]", "value": "1.6 ± 0.8", "unit": "µM"}]}
{"smiles": "O=C(OCC1CCC1)N1CCCC1", "note": "[Compound 24]", "values": [{"measurement": "MEC (minimum effective concentration)", "setting": "M. tuberculosis [1]", "value": "3.1 ± 1.8", "unit": "µM"}]}
{"smiles": "O=C(OCCCCC1CCCCC1)N1CCCC1", "note": "[Compound 29]", "values": [{"measurement": "fold drop in potency (MEC) on addition of an extra methylene unit to the linker", "setting": "M. tuberculosis [1]", "value": "roughly 16 fold"}, {"measurement": "MEC (minimum effective concentration)", "setting": "M. tuberculosis [1]", "value": "6.3 ± 3.6", "unit": "µM"}]}
{"smiles": "O=C(CC12CC3CC(CC(C3)C1)C2)N1CCCC1", "note": "[Compound 17]", "values": [{"measurement": "fold increase in ethionamide boosting ability", "setting": "M. tuberculosis [1]; 17 relative to the inactive amide 16", "value": "over 30 fold"}, {"measurement": "MEC (minimum effective concentration)", "setting": "M. tuberculosis [1]", "value": "1.6 ± 0.8", "unit": "µM"}]}
{"smiles": "CCCCC(=O)N1CCCC1", "note": "[Compound 18]", "values": [{"measurement": "MEC (minimum effective concentration)", "setting": "M. tuberculosis [1]", "value": "> 50", "unit": "µM"}]}
{"smiles": "O=C(OCCCC1CCCC1)N1CCCC1", "note": "[Compound 28]", "values": [{"measurement": "MEC for the 10-fold boosting of ethionamide", "setting": "M. tuberculosis [1]", "value": 400, "unit": "nM"}, {"measurement": "MEC (minimum effective concentration)", "setting": "M. tuberculosis [1]", "value": "0.4 ± 0.2", "unit": "µM"}, {"measurement": "fold improvement in MEC on the starting fragment 1", "setting": "M. tuberculosis [1]", "value": "roughly 7 fold"}, {"measurement": "IC50", "setting": "[3]", "value": "~1", "unit": "µM"}, {"measurement": "EC50", "setting": "[3]", "value": 0.05, "unit": "µM"}]}
{"smiles": "O=C(CC1CCCC1)N1CCCC1", "note": "[Compound 12]", "values": [{"measurement": "MEC (minimum effective concentration)", "setting": "M. tuberculosis [1]", "value": "19 ± 7.5", "unit": "µM"}]}
{"smiles": "O=C(C1CCCC1)N1CCCC1", "note": "[Compound 11]", "values": [{"measurement": "MEC (minimum effective concentration)", "setting": "M. tuberculosis [1]", "value": "> 50", "unit": "µM"}]}
{"smiles": "O=C(OCC1CCCC1)N1CCCCCC1", "note": "[Compound 21]", "values": [{"measurement": "ethionamide boosting ability in M. tuberculosis culture", "setting": "M. tuberculosis [1]", "value": "loss of ethionamide boosting ability"}, {"measurement": "MEC (minimum effective concentration)", "setting": "M. tuberculosis [1]", "value": "> 50", "unit": "µM"}]}
